{"source": "patent US20120201981A1", "about": "“COMBINATIONS OF BIOLOGICAL CONTROL AGENTS WITH A NEMATICIDAL SEED COATING” (priority 2006, published 2012)", "key": {"[1]": {"test_system": "root-knot nematodes, Meloidogyne incognita race 1", "assay": "Cucumber green house trial, cucumber seed coating trial 1", "assay_type": "in vivo", "conditions": "for main vine length (cm) @ 8 weeks / number egg masses/root / plant dry weight (g) @ 8 weeks / plant height (mm) @ 3 weeks / root galling @ 8 weeks: cucumber, rkn, mean ± SE; for root galling @ 8 weeks: scale 0-10 (0=no galling)", "procedure": "(§1) Pots (10-cm diameter) were filled with 250 g (dry weight) steam-pasteurized river bottom sand. Ten treatments with 6 replications were prepared (Table 1). The fungal antagonist Pochonia chlamydosporia was grown on autoclaved moist millet seed for three weeks at 22° C. Colonized millet was dried in a laminar flow hood, and stored aseptically at 4° C. until use. For soil inoculation, P. chlamydosporia-colonized millet was thoroughly mixed with the sand. Population density of the fungus was approximately 2000 chlamydospores/cc soil for rate 1 and 4000 chlamydospores/cc soil for rate 2.\n(§2) The nematode inoculum was raised during the previous 3 months on tomato plants (Lycopersicum esculentum cv. Tropic) in the greenhouse. Nematode eggs were obtained by standard bleach/sieving extraction. With the exception of the first treatment, each pot was infested with ca. 30000 eggs of M. incognita. This is a typical infestation level for nematicide tests resulting in high disease pressure (expected gall rating for non-treated control at 8 weeks was approximately 7 on a scale of 0-10 (Zeck, Pflanzenschutz-Nachrichten, Bayer AG, 24:141-144, 1971). Cucumber seeds (Cucumis sativus L. cv. Straight Eight, Burpee Seed Co.) were coated with either0.1 mg or 0.3 mg abamectin/seed or received no further treatment. Each pot received slow-release fertilizer (Osmocote Vegetable and Bedding Plant Food, 14-14-14, The Scotts Company) recommended for tomato production. The pots were arranged in a randomized complete block design in a greenhouse at ca. 24°±3° C. and ambient lighting. Irrigation was applied daily as needed. Three and eight weeks after seeding plant height or main vine length was determined. Eight weeks after seeding the trial was terminated and the plant tops were cut off. They were placed in a drying oven overnight and their weight was determined. The roots were placed in eryoglaucin solution overnight and the stained egg masses of the root-knot nematodes were counted. Root galling was rated on a scale of 0-10 (0=no galling). The trial was repeated once."}, "[2]": {"test_system": "root-knot nematodes, Meloidogyne incognita race 1", "assay": "Cucumber green house trial, cucumber seed coating trial 2", "assay_type": "in vivo", "conditions": "rkn, mean ± SE", "procedure": "as §1, §2"}, "[3]": {"test_system": "root-knot nematodes, Meloidogyne incognita race 1", "assay": "Tomato green house trials (data of two trials combined)", "assay_type": "in vivo", "conditions": "for J2/50 ml soil / Plant dry weight(g) / Plant height(cm) / egg count/root / egg masses/root / Root galling / fruit weight (g) / number of fruits/plant / total fruit weight/plant (g): tomato, rkn, mean ± SE; for J2/50 ml soil / Plant dry weight(g) / Plant height(cm) / egg count/root / egg masses/root / Root galling: trial termination; for Root galling: scale from 0-10; for fruit weight (g): average fruit weight", "procedure": "The greenhouse trials were conducted in pulp pots (10-cm diameter) filled with steam-pasteurized sand (250 cm^3). The biological control organism (BCO) P. chlamydosporia was grown as described above. P. chlamydosporium-inoculated millet seed were washed (1:2 weight/volume millet seed and sterile distilled water, 2 min shaking in electric blender) and passed through a 100-mesh sieve to remove the millet from the fungal chlamydospores. These served as the inoculum and were counted with a counting chamber (Fuchs-Rosenthal). The chlamydospores were thoroughly mixed with the sand. Population density of fungus was approximately 2000 chlamydospores/g soil for rate 1 and 4000 chlamydospores/g soil for rate 2 (Table 1). Tomato seeds (Lycopersicum esculentum cv. Tiny Tim) were coated with either 0.1 mg or 0.3 mg abamectin/seed or received no further treatment (Table 1). The tomato seeds were sown into seeding trays with commercial seedling substrate and after 2 weeks the plants were transplanted into 10-cm pulp pots. With the exception of the first treatment, each pot was infested with ca. 30000 eggs of M. incognita. Egg hatch rate was approximately 10% on Baerman funnels at 26° C. for 5 days. Each pot received slow release fertilizer (Osmocote Vegetable and Bedding Plant food, 14-14-14, The Scotts Company). Pots were arranged in a randomized complete block design with 6 replications per treatment and incubated in greenhouse at ca. 24±3C and ambient lighting. Plants were watered daily as needed. Plant height was determined and the shoots were cut off at the end of the trial. Shoots be placed in a drying oven at 69° C. for 72 h and the weight of each plant was determined. The extent of root galling was assessed on a scale from 0-10 (Zeck, 1971, supra).\nNematode populations were determined by counting egg masses (=number of fecundate females), eggs and second-stage juvenile (J2). The roots were placed in eryoglaucin solution overnight to stain egg masses of the root-knot nematodes which enabled their enumeration (Omwega et al., 1988). The eggs were released from egg masses through a modified bleach/sieving extraction technique (Hussey and Barker, 1973). Each week, ripe (red) tomato fruits were picked off, and the number and weight were recorded. Picking was continued until fruit production seized. The trial was repeated once. All data were subject to analysis of variation with SuperANOVA (Abacus Concepts, 1989, Berkeley, Calif.). If appropriate, Fisher's Protected Least Significant Difference (LSD) was used to separate means at P=0.05."}, "M. incognita race 1": {"test_system": "M. incognita race 1", "assay": "Tomato miniplot field trial", "assay_type": "in vivo, Meloidogyne incognita", "conditions": "P. chlamydosporia 4000 chlamydospores/cm^3 substrate", "procedure": "Nine miniplots (3 m diameter, 12 cm deep) were each filled with approximately 350000-cm^3 field soil (sandy loam, pH 7.2) obtained from an adjacent field with no significant infestation of plant-parasitic nematodes. Tomato seedlings (Lycopersicum esculentum cv. Tiny Tim) were raised from abamectin-treated seed (0.3 mg a.i./seed) or from Apron/Maxim-treated seed. They were seeded in seedling trays with commercial transplant substrate (Sunshine mix). The substrate was either non-amended or amended with P. chlamydosporia (4000 chlamydospores/cm^3 substrate). After 3 weeks in a greenhouse, the seedlings were transplanted into the 9 miniplots. Each plot was a randomized block with 4 treatments and three plants per treatment. Each planting area was infested by distributing 10,000 eggs of M. incognita race 1 into three 5 cm deep holes approximately 5 cm from each transplant. The plots were irrigated via low-pressure irrigation and fertilized according to local standard. After approximately 10 weeks the plants set fruit and were harvested three times during the following 3 weeks. Number of fruits and weight were taken. All data were subject to ANOVA and mean separation with Fisher's LSD (P=0.05)."}, "[4]": {"test_system": "Meloidogyne incognita race 3", "assay": "Root-knot nematode trial on tomato, abamectin seed coating with soil application of Pasteuria penetrans", "experimental": "Abamectin coated (0.3 mg a.i./seed) and non-treated tomato seed (cv. Kirby) was provided by Syngenta Crop Protection. The treatments were seeded in individual seedling trays. After 3 weeks incubation in a greenhouse at 25°±2° C., the seedlings were transplanted into 1500 cm^3 pots containing the test soil. The soil was collected from a field at the UC South Coast Research and Extension Center at Irvine (San Emigdio sandy loam, 12.5% sand, 12% clay, 75.4% silt, 0.45 OM, pH 7.4). To improve soil aeration and irrigation water drainage, ⅔ of the soil was mixed with ⅓ (v/v) plaster sand. The soil was pasteurized and infested with root-knot nematodes. Meloidogyne incognita race 3 inoculum was reared on tomato cv. UC 82 for ca. three months in greenhouse cultures. Nematode eggs were harvested from the root systems by a modification of a bleach/sieving method (Hussey and Barker, Plant Disease Reporter, 57:1025-1028 (1973)) and used to infested the test soil with 1000 eggs of M. incognita race 3 per 100 cm^3. Pasteuria penetrans was obtained from the University of California Riverside Nematology culture collection. The inoculum was reared on root-knot nematode-infested tomato plants. In the Pasteuria treatments, the soil was amended with approximately 1×10^5 endospores/g soil. The trial was arranged as a complete randomized block with 6 replications and incubated in a greenhouse at 26°±2° C. with ambient light. All pots were fertilized with Osmocote 14-14-14 (label rate for tomato production). Irrigation was applied as needed. Two months after transplanting, plant tops were cut off at the soil level, oven dried and weighted. Roots were rated for galling on a scale of 0-10 (Zeck, Bayer AG, Pflanzenschutz-Nachrichten, 24:141-144 (1971))."}, "[5]": {"conditions": "abamectin seed coating 0.1 mg/seed"}, "[6]": {"conditions": "abamectin seed coating 0.3 mg/seed"}, "[7]": {"conditions": "tomato miniplots, 10,000 eggs per planting area, mean ± SE, abamectin 0.3 mg/seed"}, "[8]": {"conditions": "tomato cv. Kirby, two months after transplanting, mean ± SE, abamectin seed coated 0.3 mg a.i./seed, P. penetrans soil incorporated 1 × 10E5/g soil"}}, "data": [{"substance": "abamectin", "values": [{"measurement": "plant growth compared to the non-treated control plants (in words)", "setting": "[1]; cucumber trial 1, 0.3 mg/seed rate of abamectin", "result": "significant increases in early plant growth as well as in plant dry weight and main vine length"}, {"measurement": "plant growth and root galling (in words)", "setting": "[1]; cucumber trial 1, low rate of abamectin", "result": "neither plant growth was improved nor root galling was significantly reduced"}, {"measurement": "main vine length (cm) @ 8 weeks", "setting": "[1]; [5]", "result": "100.7 ± 8.8", "unit": "ab cm"}, {"measurement": "number egg masses/root", "setting": "[1]; [5]", "result": "108.2 ± 14.0", "unit": "ab"}, {"measurement": "plant dry weight (g) @ 8 weeks", "setting": "[1]; [5]", "result": "4.2 ± 0.4", "unit": "a g"}, {"measurement": "plant height (mm) @ 3 weeks", "setting": "[1]; [5]", "result": "70.8 ± 2.3", "unit": "a mm"}, {"measurement": "main vine length (cm) @ 8 weeks", "setting": "[1]; [6]", "result": "127.8 ± 11.9", "unit": "cde cm"}, {"measurement": "number egg masses/root", "setting": "[1]; [6]", "result": "85.8 ± 12.8", "unit": "ab"}, {"measurement": "plant dry weight (g) @ 8 weeks", "setting": "[1]; [6]", "result": "5.7 ± 0.4", "unit": "bc g"}, {"measurement": "plant height (mm) @ 3 weeks", "setting": "[1]; [6]", "result": "90.8 ± 7.1", "unit": "bc mm"}, {"measurement": "root galling @ 8 weeks", "setting": "[1]; [5]", "result": "6.3 ± 0.6", "unit": "de"}, {"measurement": "root galling @ 8 weeks", "setting": "[1]; [6]", "result": "5.8 ± 0.4", "unit": "cde"}, {"measurement": "main vine length (cm) @ 8 weeks", "setting": "[2]; [5]", "result": "146.2 ± 9.8", "unit": "c cm"}, {"measurement": "number egg masses/root system @ 8 weeks", "setting": "[2]; [5]", "result": "80.8 ± 27.8", "unit": "b"}, {"measurement": "plant dry weight (g) @ 8 weeks", "setting": "[2]; [5]", "result": "6.4 ± 0.5", "unit": "c g"}, {"measurement": "plant height (mm) @ 3 weeks", "setting": "[2]; [5]", "result": "96.2 ± 6.4", "unit": "bcd mm"}, {"measurement": "root galling @ 8 weeks (scale 0-10)", "setting": "[2]; [5]", "result": "5.3 ± 0.2", "unit": "abc"}, {"measurement": "main vine length (cm) @ 8 weeks", "setting": "[2]; [6]", "result": "131.3 ± 6.2", "unit": "bc cm"}, {"measurement": "number egg masses/root system @ 8 weeks", "setting": "[2]; [6]", "result": "36.7 ± 4.0", "unit": "a"}, {"measurement": "plant dry weight (g) @ 8 weeks", "setting": "[2]; [6]", "result": "6.0 ± 0.3", "unit": "bc g"}, {"measurement": "plant height (mm) @ 3 weeks", "setting": "[2]; [6]", "result": "105.8 ± 5.3", "unit": "cde mm"}, {"measurement": "root galling @ 8 weeks (scale 0-10)", "setting": "[2]; [6]", "result": "5.0 ± 0.4", "unit": "ab"}, {"measurement": "root galling reduction (in words)", "setting": "[3]; tomato greenhouse, abamectin seed coating alone", "result": "approximately two rating classes below the check"}, {"measurement": "J2/50 ml soil", "setting": "[3]; [5]", "result": "20.3 ± 4.3", "unit": "ab"}, {"measurement": "Plant dry weight(g)", "setting": "[3]; [5]", "result": "5.24 ± 0.35", "unit": "b g"}, {"measurement": "Plant height(cm)", "setting": "[3]; [5]", "result": "27.33 ± 0.72", "unit": "cd cm"}, {"measurement": "egg count/root", "setting": "[3]; [5]", "result": "346133 ± 39003", "unit": "days"}, {"measurement": "egg masses/root", "setting": "[3]; [5]", "result": "454.2 ± 62.7", "unit": "c"}, {"measurement": "J2/50 ml soil", "setting": "[3]; [6]", "result": "7.2 ± 5.4", "unit": "ab"}, {"measurement": "Plant dry weight(g)", "setting": "[3]; [6]", "result": "6.31 ± 0.21", "unit": "c g"}, {"measurement": "Plant height(cm)", "setting": "[3]; [6]", "result": "26.17 ± 2.14", "unit": "bc cm"}, {"measurement": "egg count/root", "setting": "[3]; [6]", "result": "205867 ± 66056", "unit": "bc"}, {"measurement": "egg masses/root", "setting": "[3]; [6]", "result": "381.7 ± 120.3", "unit": "c"}, {"measurement": "Root galling", "setting": "[3]; [5]", "result": "6.67 ± 0.21", "unit": "ef"}, {"measurement": "Root galling", "setting": "[3]; [6]", "result": "5.00 ± 0.52", "unit": "c"}, {"measurement": "fruit weight (g)", "setting": "[3]; [5]", "result": "5.19 ± 0.18", "unit": "bc g"}, {"measurement": "fruit weight (g)", "setting": "[3]; [6]", "result": "6.00 ± 0.14", "unit": "c g"}, {"measurement": "number of fruits/plant", "setting": "[3]; [5]", "result": "31.0 ± 4.6", "unit": "bcd"}, {"measurement": "total fruit weight/plant (g)", "setting": "[3]; [5]", "result": "160.3 ± 22.8", "unit": "bc g"}, {"measurement": "number of fruits/plant", "setting": "[3]; [6]", "result": "40.5 ± 1.5", "unit": "cde"}, {"measurement": "total fruit weight/plant (g)", "setting": "[3]; [6]", "result": "243.3 ± 11.8", "unit": "g·days"}, {"measurement": "yield (in words)", "setting": "M. incognita race 1; tomato miniplot field trial, abamectin 0.3 mg a.i./seed", "result": "increased the yield significantly"}, {"measurement": "M. incognita eggs/plant", "setting": "M. incognita race 1; [7]", "result": "171,400 ± 37,100 a"}, {"measurement": "number fruits/plant", "setting": "M. incognita race 1; [7]", "result": "69.0 ± 3.2", "unit": "b"}, {"measurement": "root galling at harvest", "setting": "M. incognita race 1; [7]", "result": "4.5 ± 0.2", "unit": "c"}, {"measurement": "total fruit weight/plant", "setting": "M. incognita race 1; [7]", "result": "290.6 ± 12.6", "unit": "b"}, {"measurement": "J2/50 cc soil", "setting": "[4]; tomato cv. Kirby, trial termination, mean ± SE, abamectin seed coated 0.3 mg a.i./seed, P. penetrans soil incorporated 1 × 10E5/g soil", "result": "95 ± 15", "unit": "b"}, {"measurement": "plant top dry weight (g)", "setting": "[4]; [8]", "result": "31.3 ± 1.8", "unit": "ab g"}, {"measurement": "root gall rating (0-10)", "setting": "[4]; [8]", "result": "3.3 ± 0.3", "unit": "ab"}, {"measurement": "root galling (in words)", "setting": "[4]; tomato, abamectin 0.3 mg a.i./seed, P. penetrans 1×10^5 endospores/g soil", "result": "reduced galling by approximately two rating classes"}]}]}
